Test results taken from US9388208B2, “Pyrrolo[1,2-f][1,2,4]triazines useful for treating respiratory syncitial virus infections” (Gilead Sciences, Inc., priority 2013, dated 2016).
Like-named read-outs stand apart in the source and are kept apart here.

Key:
RSV strain A2 = experiment: Anti-RSV activity, infectious cytopathic cell protection assay in HEp-2 cells; format: cell-based, Respiratory Syncytial Virus (RSV); details: human respiratory syncytial virus
Procedure: Antiviral activity against RSV is determined using an infectious cytopathic cell protection assay in HEp-2 cells. In this assay, compounds inhibiting viral infection and/or replication produce a cytoprotective effect against the virus-induced cell killing that can be quantified using a cell viability reagent. The techniques used here are novel adaptations of methods described in published literature (Chapman et al., Antimicrob Agents Chemother. 2007, 51(9):3346-53.)
HEp-2 cells are obtained from ATCC (Manassas, VI) and maintained in MEM media supplemented with 10% fetal bovine serum and penicillin/streptomycin. Cells are passaged twice a week and kept at subconfluent stage. Commercial stock of RSV strain A2 (Advanced Biotechnologies, Columbia, Md.) is titered before compound testing to determine the appropriate dilution of the virus stock that generates desirable cytopathic effect in HEp-2 cells.
For antiviral tests, HEp-2 cells are grown in large cell culture flasks to near confluency but not fully so. The compounds to be tested are prediluted in DMSO in 384-well compound dilution plates, either in an 8 or 40 sample per plate standardized dose response format. 3-fold serial dilution increments of each test compound are prepared in the plates and test samples are transferred via acoustic transfer apparatus (Echo, Labcyte) at 100 nl per well into cell culture assay 384-well plates. Each compound dilution is transferred in single or quadruplicate samples into dry assay plates, which are stored until assay is ready to go. The positive and negative controls are laid out in opposite on ends of the plate in vertical blocks (1 column).
Subsequently, an infectious mixture is prepared using an appropriate dilution of virus stock previously determined by titration with cells at a density of 50,000/ml and 20 uL/well is added to test plates w/compounds via automation (uFlow, Biotek). Each plate includes negative and positive controls (16 replicates each) to create 0% and 100% virus inhibition standards, respectively. Following the infection with RSV, testing plates are incubated for 4 days in a 37° C. cell culture incubator. After the incubation, a cell viability reagent, Cell TiterGlo (Promega, Madison, Wis.) is added to the assay plates, which are incubated briefly, and a luminescent readout is measured (Envision, Perkin Elmer) in all the assay plates. The RSV-induced cytopathic effect, percentage inhibition, is determined from the levels of remaining cell viability. These numbers are calculated for each tested concentration relative to the 0% and 100% inhibition controls, and the EC50 value for each compound is determined by non-linear regression as a concentration inhibiting the RSV-induced cytopathic effect by 50%. Various potent anti-RSV tool compounds are used as positive controls for antiviral activity.

[1] = Cytotoxicity assay in MT-4 cells; format: cell-based; details: human, Cell-Titer Glo
Procedure: The MT-4 cell line was obtained from the NIH AIDS Research and Reference Reagent Program (Germantown, Md.) and cultured in RPMI-1640 medium (Irvine Scientific, Santa Ana, Calif., Cat #9160) supplemented with 10% FBS, 100 units/mL penicillin, 100 units/mL streptomycin, and 2 mM L-Glutamine. The MT-4 cells were passaged twice per week to maintain cell densities below 0.6×10^6 cells/mL. Complete RPMI-1640 media containing 100× concentrations of 3-fold serially diluted compound, ranging from 26 nM to 530 μM, were stamped in quadruplicate into black 384-well plates. After compound addition, 2×10^3 MT-4 cells were added to each well using a MicroFlo liquid dispenser (BioTek, Winooski, Vt.) and the cells were cultured for 5 days at 37° C. in a 5% CO2 incubator. Following the incubation the cells were allowed to equilibrate to 25° C. and cell viability was determined by adding 25 μL of Cell-Titer Glo viability reagent. The mixture was incubated for 10 minutes at 25° C., and the luminescence signal was quantified on a Victor Luminescence plate reader. The CC50 value is defined as the concentration of compound that reduces cell viability by 50% as determined by the Cell-Titer Glo signal. The data were analyzed using Pipeline Pilot Plate Data Analytics Collection software (Version 7.0, Accelrys, San Diego, Calif.). CC50 values were calculated from a non-linear regression analysis using a 4-parameter sigmoidal dose-response equation: Y=Bottom+(Top−Bottom)/(1+10^[(Log CC50−X)*HillSlope]) where the Top and Bottom were fixed at 100% and 0% cell viability, respectively. CC50 values were calculated as the average±standard deviation of 3 independent experiments.

[2] = Cytotoxicity assay in HEp-2 cells; format: cell-based; details: human, uninfected HEp-2 cells, CellTiter Glo
Procedure: Cytotoxicity of tested compounds is determined in uninfected HEp-2 cells in parallel with the antiviral activity using the cell viability reagent in a similar fashion as described before for other cell types (Cihlar et al., Antimicrob Agents Chemother. 2008, 52(2):655-65.). The same protocol as for the determination of antiviral activity is used for the measurement of compound cytotoxicity except that the cells are not infected with RSV. Instead, an uninfected cell mixture at the same density is added at 20 ul/well to plates containing prediluted compounds, also at 100 nl/sample. Assay plates are then incubated for 4 days followed by a cell viability test using the same CellTiter Glo reagent addition and measurement of luminescent readouts. Untreated cell and cells treated at 2 uM puromycin (Sigma, St. Louis, Mo.) serve as 100% and 0% cell viability control, respectively. The percent of cell viability is calculated for each tested compound concentration relative to the 0% and 100% controls and the CC50 value is determined by non-linear regression as a compound concentration reducing the cell viability by 50%.

[3] = 96 h, HEp-2 cells infected with RSV A2, 4 days, Cell TiterGlo, read-out: EC50
[4] = HEp-2 anti-RSV activity, read-out: EC50 (HEp-2 anti-RSV activity)

Structure (SMILES) | EC50 (RSV strain A2; [3]) | CC50 at 5 days [1] | EC50 (RSV strain A2; [4]) | CC50 at 4 days [2] | EC50 (RSV strain A2; HEp-2, 96 h)
Nc1ncnn2c([C@@H]3O[C@H](CO)[C@@H](O)[C@H]3F)ccc12 [(2R,3R,4R,5S)-5-(4-aminopyrrolo[1,2-f][1,2,4]triazin-7-yl)-4-fluoro-2-(hydroxymethyl)tetrahydrofuran-3-ol, reference compound] | > 100 µM | 30 µM | – | – | –
Nc1ncnn2c([C@@H]3O[C@H](CO)[C@@H](O)[C@H]3O)ccc12 [(2S,3R,4S,5R)-2-(4-aminopyrrolo[1,2-t][1,2,4]triazin-7-yl)-5-(hydroxymethyl)tetrahydrofuran-3,4-diol, reference compound] | – | 0.007 µM | – | – | –
C#C[C@]1(CO)O[C@@H](c2ccc3c(N)ncnn23)[C@H](F)[C@@H]1O [Example 2, (2R,3R,4R,5S)-5-(4-aminopyrrolo[1,2-f][1,2,4]triazin-7-yl)-2-ethynyl-4-fluoro-2-(hydroxymethyl)tetrahydrofuran-3-ol] | 9.6 µM | > 106 µM | < 100 µM | > 100 µM | –
N#C[C@]1(CO)O[C@@H](c2ccc3c(N)ncnn23)[C@H](F)[C@@H]1O [Example 3, (2R,3R,4R,5S)-5-(4-aminopyrrolo[1,24][1,2,4]triazin-7-yl)-4-fluoro-3-hydroxy-2-(hydroxymethyl)tetrahydrofuran-2-carbonitrile] | 2 µM | > 106 µM | < 100 µM | > 100 µM | –
C[C@]1(CO)O[C@@H](c2ccc3c(N)ncnn23)[C@H](O)[C@@H]1O [Example 4, (2R,3S,4R,5S)-5-(4-aminopyrrolo[1,2-f][1,2,4]triazin-7-yl)-2-(hydroxymethyl)-2-methyltetrahydrofuran-3,4-diol] | 30 µM | > 53 µM | – | > 50 µM | –
[N-]=[N+]=N[C@]1(CO)O[C@@H](c2ccc3c(N)ncnn23)[C@H](O)[C@@H]1O [Example 5, (2R,3S,4R,5S)-5-(4-aminopyrrolo[1,2-f][1,2,4]triazin-7-yl)-2-azido-2-(hydroxymethyl)tetrahydrofuran-3,4-diol] | 2.1 µM | > 53 µM | – | > 50 µM | –
CC(C)(C)C(=O)SCCOP(=O)(OCCSC(=O)C(C)(C)C)OC[C@@]1(C#N)O[C@@H](c2ccc3c(N)ncnn23)[C@H](F)[C@@H]1O [Example 11, S,S′-2,2′-((((2R,3R,4R,5S)-5-(4-aminopyrrolo[1,2-f][1,2,4]triazin-7-yl)-2-cyano-4-fluoro-3-hydroxytetrahydrofuran-2-yl)methoxy)phosphoryl)bis(oxy)bis(ethane-2,1-diyl)bis(2,2-dimethylpropanethioate)] | – | 19.7 µM | – | 42 µM | 1.2 µM
CCC(CC)COC(=O)[C@H](C)NP(=O)(OC[C@@]1(C#N)O[C@@H](c2ccc3c(N)ncnn23)C(F)C1O)Oc1ccccc1 (stereo partly drawn) [Example 12, (2S)-2-ethylbutyl 2-((((2R,3R,4R,5S)-5-(4-aminopyrrolo[1,2-f][1,2,4]triazin-7-yl)-2-cyano-4-fluoro-3-hydroxytetrahydrofuran-2-yl)methoxy)(phenoxy)phosphorylamino)propanoate] | – | 27 µM | – | > 50 µM | 3 µM
C=C[C@]1(CO)O[C@@H](c2ccc3c(N)ncnn23)[C@H](F)[C@@H]1O [Example 13, (2R,3R,4R,5S)-5-(4-aminopyrrolo[1,2-f][1,2,4]triazin-7-yl)-4-fluoro-2-(hydroxymethyl)-2-vinyltetrahydrofuran-3-ol] | 10.5 µM | > 106 µM | < 100 µM | > 100 µM | –
CC[C@]1(CO)O[C@@H](c2ccc3c(N)ncnn23)[C@H](F)[C@@H]1O [Example 14, (2R,3R,4R,5S)-5-(4-aminopyrrolo[1,24][1,2,4]triazin-7-yl)-2-ethyl-4-fluoro-2-(hydroxymethyl)tetrahydrofuran-3-ol] | 40 µM | > 106 µM | < 100 µM | > 100 µM | –
C=C[C@]1(COP(=O)(OCCSC(=O)C(C)(C)C)OCCSC(=O)C(C)(C)C)O[C@@H](c2ccc3c(N)ncnn23)[C@H](F)[C@@H]1O [Example 15, S,S′-2,2′-((((2R,3R,4R,5S)-5-(4-aminopyrrolo[1,2-f][1,2,4]triazin-7-yl)-4-fluoro-3-hydroxy-2-vinyltetrahydrofuran-2-yl)methoxy)phosphoryl)bis(oxy)bis(ethane-2,1-diyl)bis(2,2-dimethylpropanethioate)] | – | 7.9 µM | – | 35 µM | 1.6 µM
CCC(CC)COC(=O)[C@H](C)NP(=O)(OC[C@@]1(N=[N+]=[N-])O[C@@H](c2ccc3c(N)ncnn23)[C@H](O)[C@@H]1O)Oc1ccccc1 (stereo partly drawn) [Example 16, (2S)-2-ethylbutyl 2-(((((2R,3S,4R,5S)-5-(4-aminopyrrolo[2,1-f][1,2,4]triazin-7-yl)-2-azido-3,4-dihydroxytetrahydrofuran-2-yl)methoxy)(phenoxy)phosphoryl)amino)propanoate] | – | 25 µM | – | 18 µM | 0.3 µM
[N-]=[N+]=N[C@]1(CO)O[C@@H](c2ccc3c(N)ncnn23)[C@H](F)[C@@H]1O [Example 19, (2R,3R,4R,5S)-5-(4-aminopyrrolo[2,1-f][1,2,4]triazin-7-yl)-2-azido-4-fluoro-2-(hydroxymethyl)tetrahydrofuran-3-ol] | 0.4 µM | 16 µM | < 100 µM | > 44 µM | –
C=C[C@]1(CO)O[C@@H](c2ccc3c(N)ncnn23)[C@H](O)[C@@H]1O [Example 20, (2R,3S,4R,5S)-5-(4-aminopyrrolo[2,1-f][1,2,4]triazin-7-yl)-2-(hydroxymethyl)-2-vinyltetrahydrofuran-3,4-diol] | > 50 µM | > 53 µM | – | > 50 µM | –
[N-]=[N+]=N[C@]1(CO)O[C@@H](c2cc(F)c3c(N)ncnn23)[C@H](F)[C@@H]1O [Example 21, (2R,3R,4R,5S)-5-(4-amino-5-fluoropyrrolo[2,1-f][1,2,4]triazin-7-yl)-2-azido-4-fluoro-2-(hydroxymethyl)tetrahydrofuran-3-ol] | 50 µM | 15 µM | < 100 µM | 36 µM | –
N#C[C@]1(CO)O[C@@H](c2cc(F)c3c(N)ncnn23)[C@H](F)[C@@H]1O [Example 23, (2R,3R,4R,5S)-5-(4-amino-5-fluoropyrrolo[2,1-f][1,2,4]triazin-7-yl)-4-fluoro-3-hydroxy-2-(hydroxymethyl)tetrahydrofuran-2-carbonitrile] | 23.5 µM | 21 µM | < 100 µM | 72 µM | –
